Paper PMC5809530, “Resculpting the binding pocket of APC superfamily LeuT-fold amino acid transporters” (Cellular and Molecular Life Sciences: CMLS, 2017)

What was measured:
Assay type in all cases: cell-based
SNAT5 (SLC38A5) [1] = molecular target: T1, SNAT5 (SLC38A5) (Homo sapiens, UniProt Q8WUX1, A138T); assay: radiolabelled alanine uptake and competition with serine uptake in Xenopus oocytes; details: 50 μM substrate, 0-10 mM competitor; pH 8.5, Na+
T1 construct: full length in pSPORT1, expressed in Xenopus laevis oocytes

SNAT5 (SLC38A5) [2] = molecular target: T2, SNAT5 (SLC38A5) (Homo sapiens, UniProt Q8WUX1, A138I); assay: as above; details: 50 μM substrate, 0-10 mM competitor; pH 8.5, Na+
T2 construct: full length in pSPORT1, expressed in Xenopus laevis oocytes

SNAT5 (SLC38A5) [3] = molecular target: T3, SNAT5 (SLC38A5) (Homo sapiens, UniProt Q8WUX1); assay: competition with radiolabelled serine uptake in Xenopus oocytes; details: 50 μM serine, 0-10 mM asparagine; pH 8.5, Na+
T3 construct: full length in pSPORT1, expressed in Xenopus laevis oocytes

PAT2 (SLC36A2) [4] = molecular target: PAT2 (SLC36A2) (Rattus norvegicus, UniProt Q8K415); assay: competition with radiolabelled proline uptake in Xenopus oocytes; parameters: full length in pSPORT1, expressed in Xenopus laevis oocytes; details: 10 μM proline, 10 mM glycine; Na+-free, pH 5.5
SNAT5 (SLC38A5) [5] = molecular target: T3, SNAT5 (SLC38A5); assay: radiolabelled serine uptake and self-competition in Xenopus oocytes; details: 50 μM serine; pH 8.5, Na+
PAT2 (SLC36A2) [6] = molecular target: T4, PAT2 (SLC36A2) (Rattus norvegicus, UniProt Q8K415, F159I); assay: competition with radiolabelled proline uptake and direct uptake in Xenopus oocytes; details: 10 μM proline, 0-20 mM α-ABA; Na+-free, pH 5.5
T4 construct: full length in pSPORT1, expressed in Xenopus laevis oocytes
T4 sequence (Q8K415 whole entry F159I): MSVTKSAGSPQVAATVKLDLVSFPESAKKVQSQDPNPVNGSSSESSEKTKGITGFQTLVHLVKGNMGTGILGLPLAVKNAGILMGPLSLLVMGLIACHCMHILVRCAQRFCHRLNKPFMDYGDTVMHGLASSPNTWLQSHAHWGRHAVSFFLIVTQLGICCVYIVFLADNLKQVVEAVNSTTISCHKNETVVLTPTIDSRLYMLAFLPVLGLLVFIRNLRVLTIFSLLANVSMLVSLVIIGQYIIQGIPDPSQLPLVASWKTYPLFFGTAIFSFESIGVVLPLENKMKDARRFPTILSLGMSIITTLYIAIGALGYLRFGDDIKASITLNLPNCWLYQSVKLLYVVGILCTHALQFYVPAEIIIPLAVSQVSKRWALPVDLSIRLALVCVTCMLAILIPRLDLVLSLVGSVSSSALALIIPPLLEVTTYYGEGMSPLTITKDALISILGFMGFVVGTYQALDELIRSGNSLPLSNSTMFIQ

T3 sequence (Q8WUX1 whole entry): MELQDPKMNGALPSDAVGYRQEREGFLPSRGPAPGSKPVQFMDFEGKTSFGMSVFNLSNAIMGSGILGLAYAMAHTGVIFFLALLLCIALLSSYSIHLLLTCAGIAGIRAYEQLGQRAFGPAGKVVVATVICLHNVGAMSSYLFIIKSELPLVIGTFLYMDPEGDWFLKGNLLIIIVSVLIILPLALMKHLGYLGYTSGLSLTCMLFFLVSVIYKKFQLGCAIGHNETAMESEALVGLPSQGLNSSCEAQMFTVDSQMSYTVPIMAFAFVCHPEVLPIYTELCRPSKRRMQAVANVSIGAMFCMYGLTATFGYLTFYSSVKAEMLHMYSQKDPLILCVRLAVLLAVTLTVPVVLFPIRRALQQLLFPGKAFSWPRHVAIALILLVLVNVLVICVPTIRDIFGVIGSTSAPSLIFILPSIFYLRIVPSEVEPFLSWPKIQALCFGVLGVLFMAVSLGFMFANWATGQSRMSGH
T1 sequence (Q8WUX1 whole entry A138T): as the sequence (Q8WUX1 whole entry) above, with A138T counted along it
T2 sequence (Q8WUX1 whole entry A138I): as the sequence (Q8WUX1 whole entry) above, with A138I counted along it
PAT2 (SLC36A2) (Rattus norvegicus, UniProt Q8K415), sequence (Q8K415 whole entry): as the sequence (Q8K415 whole entry F159I) above, with I159F counted along it

C[C@H](N)C(=O)O [alanine]
radiolabelled alanine uptake and competition with serine uptake in Xenopus oocyt (SNAT5 (SLC38A5) [1]): A138T and A138I mutants gain function and become excellent alanine transporters | radiolabelled alanine uptake and competition with serine uptake in Xenopus oocyt (SNAT5 (SLC38A5) [2]): A138T and A138I mutants gain function and become excellent alanine transporters

NC(=O)C[C@H](N)C(=O)O [asparagine]
competition with radiolabelled serine uptake in Xenopus oocytes (SNAT5 (SLC38A5) [3]): measured in the presence of e unlabelled serine, f asparagine, or g alanine

NCC(=O)O [glycine]
competition with radiolabelled proline uptake in Xenopus oocytes (PAT2 (SLC36A2) [4]): Glycine and alanine interact with all five carriers

N[C@@H](CO)C(=O)O [serine]
radiolabelled serine uptake and self-competition in Xenopus oocytes (SNAT5 (SLC38A5) [5]): Serine is transported well by SNAT5, whereas alanine is transported poorly

CC[C@H](N)C(=O)O [α-ABA]
competition with radiolabelled proline uptake and direct uptake in Xenopus oocyt (PAT2 (SLC36A2) [6]): PAT2-F159I not only binds Ser and α-ABA but efficiently translocates these amino acids
